Experiments:
[1] = molecular target: T1, β5 subunit of the human immunoproteasome (IPS) (Homo sapiens, UniProt P28062); test: β5 inhibition assay, human immunoproteasome (Suc-LLVY-AMC); format: biochemical; settings: IC50 class, Suc-LLVY-AMC substrate
T1 construct: purchased Boston Biochem E-370
In short: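 β5 activity is read as liberated AMC fluorescence (355/460 nm) after 4 h dark reaction at RT with 22.6 μM Suc-LLVY-AMC, stopped by 1 μM bortezomib. Beforehand, 1 nM human IPS and compound sat 10 min at RT in HEPES pH 7.5 buffer containing NaCl, 0.02% SDS and DTT.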

[2] = tested on: hPMBC; test: Chymotrypsin-like ProteasomeGlo assay in hPBMC; format: cell-based; settings: Homo sapiens; read-out: Pglo hPBMC
In short: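 IC50 derived from luminescent chymotrypsin-like proteasome activity (Suc-LLVY-Glo substrate plus luciferin detection reagent). Measured after 105 min compound exposure at 37 °C, 5% CO2. Cells were human B cells purified from buffy-coat PBMC.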

With Cc1ccc2cc1CNC(=O)C(c1cnn(C)c1)NC(=O)CCCCC(=O)N1CCCC(CCO2)C1 (centres unmarked) [Compound 356, 5^4-methyl-9-(1-methyl-1H-pyrazol-4-yl)-4-oxa-7,10-diaza-1(3,1)-piperidina-5(1,3)-benzenacyclohexadecaphane-8,11,16-trione] the IC50 [1] was < 100 nM and the IC50 [2] was < 100 nM.
